Test results from ChEMBL document CHEMBL1157539, “Thousands of chemical starting points for antimalarial lead identification” (Nature, 2010).

The compounds below were run on Plasmodium falciparum (assay: GSK_TCMDC: Inhibition of Plasmodium falciparum 3D7 in whole erythrocytes, using parasite LDH activity as an index of growth.). Details: Plasmodium falciparum, 3D7.
Type: functional, organism-based
Cc1ccc(C2CCN(CCCCNC(=O)c3ccc(NC(=O)c4ccc(Cl)cc4)cc3)CC2)c(OCC(F)(F)F)c1 was tested, and the XC50 was 284 nM.
With N=C(N)Nc1cccc(NC(=O)Nc2cccc(NC(=N)N)c2)c1 the XC50 was 258 nM.
In the case of CCNC(=O)c1ccc2c(c1)c(C)c(C)n2Cc1ccc(F)cc1, the XC50 is reported as 767 nM.
Work on O=C(NCCCc1ccccc1)c1ccc(O)c(-c2cc(Cl)cc(Cl)c2)c1 yielded an XC50 of 567 nM.
Work on O=C(NCC1CCC(CNCCc2ccccc2)CC1)Nc1ccc(Cl)c(Cl)c1 (stereo not drawn) yielded an XC50 of 745 nM.
With COc1ccc(NC(=O)NC2CCN(CCCCCNC(=O)/C=C/c3ccc(Cl)c(Cl)c3)CC2)cc1 the XC50 was 1010 nM.
COc1ccc2ncc(Cl)c([C@@H](O)CN3CCC(NCc4cc5c(cn4)OCCO5)CC3)c2c1 gave an XC50 of 59.5 nM.
Cc1[nH]c2ccccc2c1C1=CCN(CCCCC2(C)C(=O)Nc3cccc(F)c32)CC1 (stereo not drawn) gave an XC50 of 364 nM.
COc1ccccc1C1CCN(CCCCNC(=O)c2ccc(/C=C/c3cc(Cl)cc(Cl)c3)cc2)CC1 was tested, and the XC50 was 718 nM.
With COc1ccc(Nc2nccc(N3CCC(NC(=O)Nc4cccc(C(C)=O)c4)C3)n2)cc1 (stereo not drawn) the XC50 was 821 nM.
Cn1nc(-c2ccc(CN[C@@H]3CCc4ccc(O)cc43)cc2)c2cnc(NCCCN3CCCC3)nc21 was tested, and the XC50 was 797 nM.
Compound CCCCc1ccc(-c2ccc(-c3c(C)[nH]c(C)c(Br)c3=O)cn2)cc1 has an XC50 of 57.8 nM.
CCOc1cc(C(=O)N[C@@H](Cc2ccccc2)[C@H](O)CNCc2cccc(OC)c2)cc(N2CCCCS2(=O)=O)c1 was tested, and the XC50 was 721 nM.
For CC(C)(C)SCC(O)Cn1c2ccc(Br)cc2c2cc(Br)ccc21 (stereo not drawn), the XC50 was 1000 nM.
With CCn1cnc2c(Nc3cccc([N+](=O)[O-])c3)nc(N3CCC(N4CCCCC4)CC3)nc21 the XC50 was 954 nM.
Work on c1ccc2c(NCCCCCCCCCNc3c4ccccc4nc4ccccc34)c3ccccc3nc2c1 yielded an XC50 of 298 nM.
For COc1ccc(CN2CCN(Cc3cc(Cl)ccc3O)CC2CCO)c(C)c1C (stereo not drawn), the XC50 was 1490 nM.
Compound CN(C)Cc1cccc(-c2ccc(NC(=O)c3ccc4c(=O)n(C5CCCCC5)cnc4c3)cc2)c1 has an XC50 of 744 nM.
O=C(NC1CCCC1)c1ccc(N2CCC(NCc3cc4cc(Cl)ccc4[nH]3)CC2)cc1 was tested, and the XC50 was 1220 nM.
Compound Cc1cc(C)c(NC(=O)NC2CCN(CCCCCNC(=O)/C=C/c3ccc(Cl)c(Cl)c3)C2)c(C)c1 (stereo not drawn) has an XC50 of 186 nM.
With CC(=O)Oc1c(Cl)c(C)nc(C)c1-c1ccc(Oc2ccc(Cl)cc2)cc1 the XC50 was 31.5 nM.
With O=C(NC1CCN(CC2(c3ccc(Cl)cc3)CCCCC2)CC1)c1cc[nH]n1 the XC50 was 84 nM.
Compound COc1cccc2cc(C(=O)N[C@@H](CC(C)C)C(=O)N[C@H](C=NN3CCOC3=O)CC(C)C)oc12 has an XC50 of 741 nM.
Cn1nc(-c2ccc(NC(=O)Nc3ccc4ccccc4c3)c(F)c2)c2cnc(NCCN3CCOCC3)nc21 showed an XC50 of 1020 nM.
Compound CC(C)(C)C1CCC(C(=O)c2ccc3ccccc3c2O)CC1 (stereo not drawn) has an XC50 of 751 nM.
For CCCCCC(=O)NCC(NCCCNc1cc(=O)c2ccccc2[nH]1)c1cc(Br)cc(Br)c1 (stereo not drawn), the XC50 was 652 nM.
CC(CN(C)C)C(=O)Nc1ccc(-c2csc(-c3nc4ccccc4[nH]3)c2)cc1 (stereo not drawn) showed an XC50 of 1320 nM.
Work on CCCCN(CCCC)CCCN(CCCN(CCCC)CCCC)c1cc(C)nc(Nc2ccc3cc(Br)ccc3c2)n1 yielded an XC50 of 320 nM.
Work on Oc1ccc2[nH]cc(C3CCN(CCCNCc4ccc(-c5ccccc5)cc4)CC3)c2c1 yielded an XC50 of 725 nM.
Work on COc1ccc(CNCc2ccsc2)cc1-c1ccc(OC)c(S(=O)(=O)NCCN2CCCC2)c1 yielded an XC50 of 917 nM.
In the case of Cn1ccnc1CNC(=O)c1ccc(-c2ccc(-c3nc4cc(C(F)(F)F)ccc4[nH]3)s2)cc1, the XC50 is reported as 698 nM.
CCn1c(-c2nonc2N)nc2c(-c3cc4ccccc4s3)ncc(C(=O)N3CCC(N)C3)c21 (stereo not drawn) gave an XC50 of 871 nM.
COc1ccc(S(=O)(=O)N(CCCN2CCN(C)CC2)Cc2csc(-c3ccc(CNCc4ccccc4)cc3)n2)cc1 gave an XC50 of 949 nM.
c1cc(-c2ccc(CNCc3ccsc3)cc2)cc(-c2nc3ccccc3[nH]2)c1 showed an XC50 of 156 nM.
Work on Cc1ccc(NC(=O)NC2CCN(CCCCCNC(=O)C3CC3c3ccc(Cl)c(Cl)c3)CC2)cc1 (stereo not drawn) yielded an XC50 of 540 nM.
With COc1ccc2c(=O)c3ccc(OC)cc3[nH]c2c1 the XC50 was 810 nM.
CC1(C)NC(N)=NC(=N)N1OCCCSc1ccccc1 gave an XC50 of 3.2 nM.
CS(=O)(=O)c1ccc(-c2cncc(Cl)n2)cc1 gave an XC50 of 770 nM.
